Source: patent US20040110678A1, “Novel drug delivery system” (priority 2001, published 2004)
Converted amounts (≈) assume the structure as drawn. Like-named read-outs stand apart in the source and are kept apart here. Each block holds one compound with its values, some of them ahead of it. Where a SMILES comes first, the peptide text is derived from it. The star is where a group is joined. Palmitoyl = CCCCCCCCCCCCCCCC(=O)*; Myristoyl = CCCCCCCCCCCCCC(=O)*

How the values were obtained:
[1] = system: Escherichia coli 0111-NCTC 8007; assay type: cell-based; settings: for Minimum Inhibitory Concentration E. coli: NCTC 8007
Experimental: (§1) Staphylococcus aureus NCTC Oxford and Escherichia coli 0111-NCTC 8007 strains were obtained from the National Collection of Type Cultures, Colindale, UK MIC for each sample was determined in 96 well plates. The above sample in PBS was serially diluted in microtitre wells with media, RPMI-1640 to give concentrations from 2 mg/ml to 0.00375 mg/ml or from 1 mg/ml to 0.00375 mg/ml or from 0.5 mg/ml to 0.00375 mg/ml of RH01 in a final volume of 100 μl. Bacteria were incubated at 37° C. overnight in standard media to give approximately 10^8 bacteria/ml and 10 μl of this was added to each well. The plates were incubated at 37° C. overnight, and bacterial growth determined by formation of a pellet.
(§2) Staphylococcus aureus NCTC Oxford and Escherichia coli 0111-NCTC 8007 strains were obtained from the National Collection of Type Cultures, Colindale, UK. The MIC for each sample was determined in 96 well plates. The RH01 in PBS (see above) was serially diluted in microtitre wells with media (RPMI-1640) to give final concentrations of 2 mg/ml to 0.00375 mg/ml of RH01 in a final volume of 100 μl. Bacteria were incubated at 37° C. overnight in standard media to give approximately 10^8 bacteria/ml and 10 μl of this was added to each well. The plates were incubated at 37° C. overnight, and bacterial growth determined by formation of a pellet.

[2] = system: Staphylococcus aureus NCTC Oxford; assay: microbe, parasite or virus in culture; assay type: cell-based; settings: for MIC: read-out: MIC S. aureus
Experimental: as §1, §2

HSAff = molecular target: T1, HSAff (Homo sapiens, UniProt P02768); assay: Displacement of albumin-bound diazepam from HSAff-diazepam (1:1) monitored by induced CD; assay type: binding
T1 construct: purchased Sigma-Aldrich Company Ltd catalogue number not given; lot 32H9300
T1 sequence (P02768 25-609): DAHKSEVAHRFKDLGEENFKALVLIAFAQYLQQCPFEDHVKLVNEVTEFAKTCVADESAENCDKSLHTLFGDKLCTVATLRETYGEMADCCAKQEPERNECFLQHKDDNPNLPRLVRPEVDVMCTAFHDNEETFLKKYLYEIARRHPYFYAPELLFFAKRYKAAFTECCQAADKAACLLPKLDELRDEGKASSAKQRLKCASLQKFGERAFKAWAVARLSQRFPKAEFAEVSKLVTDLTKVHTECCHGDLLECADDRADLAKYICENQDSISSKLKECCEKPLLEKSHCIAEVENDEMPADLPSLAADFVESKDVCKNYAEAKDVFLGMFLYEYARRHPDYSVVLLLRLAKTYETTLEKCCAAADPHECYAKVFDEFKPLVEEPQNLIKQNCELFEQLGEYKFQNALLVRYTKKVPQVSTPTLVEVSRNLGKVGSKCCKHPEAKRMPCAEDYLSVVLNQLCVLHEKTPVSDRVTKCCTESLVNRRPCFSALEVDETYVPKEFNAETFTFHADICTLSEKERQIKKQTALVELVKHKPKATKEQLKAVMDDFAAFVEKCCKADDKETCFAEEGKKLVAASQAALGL
Experimental: Diazepam (0.088 mg) was dissolved by sonication for 30 mins in distilled water (0.687 ml). Sodium palmitate (0.872 mg) was dissolved in water pH 8.8 (0.698 ml) by sonicating for 5 mins. […] The CD spectrum of the mixture was then recorded. Sodium palmitate (51 μl) was added to the cell and the mixture was gently mixed by rotating the cell several times. The CD spectrum of the mixture was recorded. This process was repeated twice over, each time the CD spectrum was recorded. The cell was then washed thoroughly with distilled water and ethanol. Distilled water (2.705 ml) was then placed in the 5 cm cell and CD spectrum recorded.
CD spectra were recorded with nitrogen flushed JASCO spectropolarimeter J600 using 4 s time constant, 10 nm/min scan speed and a spectral bandwidth of 2 nm. The induced CD spectra of bound diazepam were obtained by subtracting the spectrum of albumin from that of the HSA-diazepam mixture. The spectra were reported as Δε=εL−εR(M^−1cm^−1).
Diazepam and medium chain fatty acids are known to bind to albumin site II as discussed by T Peters, All about albumin, Academic Press, 1999, p116. The fatty acid molecules are devoid of any CD signal. […] In here, diazepam is used as a marker to show the binding of fatty acids and fatty acid containing molecules to albumin. […] Palmitic acid binds to at least five long chain fatty acid binding sites of which one is closely located to albumin site II as reported by Curry et al. (1998, Nature Structural Biology, 5, 827-835).

Pronase® = assay type: in vitro ADME
Experimental: HSA fatty acid free (2.359 mg) was dissolved in distilled water (3.93 ml) to give concentration 0.60 mg/ml. Pronase® (0.363 mg) was dissolved in distilled water (0.605 ml) to give a concentration 0.60 mg/ml.
HSA fatty acid free solution (0.2 ml) was placed in a 0.05 cm cell and the circular dichroism spectrum (CD) was recorded. The cell was then thoroughly washed with distilled water and ethanol. HSA fatty acid free solution (2.7 ml) was placed in a glass vial. Pronase® solution (27 μl) was added to HSA fatty acid free solution in the glass vial. The mixture was mixed gently and 200 μl was transferred to 0.05 cm cell. The cell was then incubated at 37° C. and CD spectra recorded at various incubation time intervals.
CD spectra were recorded with nitrogen flushed JASCO spectropolarimeters J600 4s time constant, 10 nm/min scan speed and a spectral bandwidth of 2 nm. […]
HSA fatty acid free solution (275 μl) was placed in a glass vial. […] Mixture (200 μl) was transferred into a 0.05 cm cell and CD spectrum was recorded. […] The cell was then incubated at 37° C. and CD spectra recorded at various incubation time intervals.
HSA with fatty acid solution (275 μl) was placed in a glass vial. […] Mixture (200 μl) was transferred into a 0.05 cm cell and CD spectrum was recorded. […] The cell was then incubated at 37° C. and CD spectra recorded at various incubation time intervals. […]

BSAff = molecular target: T2, BSAff (Bos taurus, UniProt P02769); assay: Diazepam binding to fatty acid free bovine serum albumin by induced CD; settings: fatty acid 0M/M
T2 construct: Bovine serum albumin essentially fatty acid free; purchased Sigma-Aldrich Company Ltd catalogue number not given; lot 100K7415
T2 sequence (P02769 25-607): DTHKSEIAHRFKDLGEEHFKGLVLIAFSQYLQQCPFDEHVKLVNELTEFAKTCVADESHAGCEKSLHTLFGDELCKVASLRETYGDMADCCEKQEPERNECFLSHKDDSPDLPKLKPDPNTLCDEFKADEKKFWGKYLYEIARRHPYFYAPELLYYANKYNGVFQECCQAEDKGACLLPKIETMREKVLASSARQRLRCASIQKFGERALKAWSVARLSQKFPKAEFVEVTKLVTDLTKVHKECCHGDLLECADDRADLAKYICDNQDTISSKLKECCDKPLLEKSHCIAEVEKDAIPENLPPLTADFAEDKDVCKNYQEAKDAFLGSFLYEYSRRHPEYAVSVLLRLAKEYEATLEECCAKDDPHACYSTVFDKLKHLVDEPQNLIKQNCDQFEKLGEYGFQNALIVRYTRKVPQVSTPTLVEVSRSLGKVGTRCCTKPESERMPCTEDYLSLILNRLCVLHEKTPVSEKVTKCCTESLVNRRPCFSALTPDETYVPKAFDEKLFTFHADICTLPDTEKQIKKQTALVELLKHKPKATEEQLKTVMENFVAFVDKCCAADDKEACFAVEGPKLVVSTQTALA
Experimental: BSAff (1.914 mg) was dissolved in distilled water (3.19 ml) to give concentration of 0.6 mg/ml. Diazepam (0.422 mg) was dissolved by sonication for 30 mins in distilled water (3.297 ml) to give a concentration of 0.128 mg/ml. BSAff solution (1.05 ml) was transferred to 2 cm cell and CD spectra was recorded. Diazepam (22 μl) was added to the BSAff in the 2 cm cell and the mixture was gently mixed by rotating the cell several times. The CD spectrum of the mixture was then recorded. The cell was then washed thoroughly with distilled water and ethanol. Distilled water (1.10 ml) was then placed in the 2 cm cell and CD spectrum recorded. CD parameters are as in example 1.

[3] = Staphylococcus aureus, 0.5 h, Table 2, peptide incubation time in mixture 30 min 25° C.
[4] = Staphylococcus aureus, Table 2, peptide incubation time in mixture 2 h 37° C.

Compound: CCCCCCCCCCCCCCCC(=O)NCCCC[C@H](NC(=O)[C@H](CC(N)=O)NC(=O)[C@H](CCCCN)NC(=O)[C@H](CCCCNC(=O)CCCCCCCCCCCCCCC)NC(=O)[C@H](CCCNC(=N)N)NC(=O)[C@H](CC(C)C)NC(=O)[C@H](C)NC(=O)CNC(=O)[C@H](CCCCN)NC(=O)[C@H](CCCNC(=N)N)NC(=O)[C@H](C)NC(=O)[C@H](Cc1ccccc1)NC(=O)[C@H](CCCCN)NC(=O)CCCCCCCCCCCCCCC)C(N)=O [RH03] (Palmitoyl-KFARKGALRK(Palmitoyl)KNK(Palmitoyl)-NH2)
Minimum Inhibitory Concentration E. coli [1]: 441 µM | Minimum Inhibitory Concentration S. aureus ([2]; NCTC Oxford): 55 µM

Compound: CCCCCCCCCCCCCCCC(=O)NCCCC[C@H](NC(=O)[C@H](CC(N)=O)NC(=O)[C@H](CCCCN)NC(=O)[C@H](CCC(N)=O)NC(=O)[C@H](CCCNC(=N)N)NC(=O)[C@H](CC(C)C)NC(=O)[C@H](C)NC(=O)CNC(=O)[C@H](CCCCN)NC(=O)[C@H](CCCNC(=N)N)NC(=O)[C@H](C)NC(=O)[C@H](Cc1ccccc1)NC(=O)[C@H](CCCCN)NC(=O)CCCCCCCCCCCCCCC)C(N)=O [RH02] (Palmitoyl-KFARKGALRQKNK(Palmitoyl)-NH2)
Minimum Inhibitory Concentration E. coli [1]: 62 µM | Minimum Inhibitory Concentration S. aureus ([2]; NCTC Oxford): 3.7 µM

Compound: CCCCCCCCCCCCCC(=O)N[C@@H](Cc1ccccc1)C(=O)N[C@@H](C)C(=O)N[C@@H](CCCNC(=N)N)C(=O)N[C@@H](CCCCN)C(=O)NCC(=O)N[C@@H](C)C(=O)N[C@@H](CC(C)C)C(=O)N[C@@H](CCCNC(=N)N)C(=O)N[C@@H](CCC(N)=O)C(=O)O [RH01] (Myristoyl-FARKGALRQ-OH)
displacement of diazepam (DZ) from HSAff-DZ (1:1) (HSAff; added at different molar ratios, data not shown): decreased induced CD | stability towards Pronase degradation, comparison in words (Pronase®): stabilises fat free DBax HSA like HSAff | Minimum Inhibitory Concentration E. coli [1]: 48 µM | potency with HSAff compared to the lipopeptide alone or with HSAfa ([1]; from Table 1): twice as potent | MIC ([2]; NCTC Oxford, 2 h): 24 µM (≈ 30.2 µg/mL) | MIC ([2]; NCTC Oxford): 12 µM (≈ 15.1 µg/mL) | potency with HSAff compared to the lipopeptide alone or with HSAfa ([2]; from Table 1): twice as potent

Compound: CC(C)C[C@H](NC(=O)[C@H](C)NC(=O)CNC(=O)[C@H](CCCCN)NC(=O)[C@H](CCCNC(=N)N)NC(=O)[C@H](CCCCN)NC(=O)[C@H](Cc1ccccc1)NC(=O)[C@@H](N)CCCCN)C(=O)N[C@@H](CCCNC(=N)N)C(=O)N[C@@H](CCC(N)=O)C(=O)N[C@@H](CCCCN)C(=O)N[C@@H](CC(N)=O)C(=O)N[C@@H](CCCCN)C(N)=O [RH04]
Minimum Inhibitory Concentration E. coli [1]: 620 µM | Minimum Inhibitory Concentration S. aureus ([2]; NCTC Oxford): 145 µM

MIC [2, 3]: > 800 µM | MIC [2, 4]: > 800 µM
Compound: CCCCCCCC(=O)O [CA, caprylic acid, reference compound]

Compound: BSAff: bovine serum albumin essentially fatty acid free and essentially globulin-free
induced CD of diazepam bound to BSAff, in words (BSAff): characteristic induced CD

percentage of diazepam induced CD (HSAff; 1 molar equivalent added to the mixture HSAff-diazepam (1:1)): 88.5% | percentage of diazepam induced CD (HSAff; 2 molar equivalents added to the mixture HSAff-diazepam (1:1)): 60.0% | percentage of diazepam induced CD (HSAff; 3 molar equivalents added to the mixture HSAff-diazepam (1:1)): 18.6% | MIC [2, 3]: > 800 µM | MIC [2, 4]: > 800 µM
Compound: CCCCCCCCCCCCCCCC(=O)O [PA, palmitic acid]
